pIC50: −log10 of the molar value.
Tests used:
[1] = Displacement of [3H]EBOB from GABA receptor in Rattus norvegicus (rat) membrane after 70 min by liquid scintillation counting; assay type: cell membranes
GABA receptor subunit = molecular target: T1, GABA receptor subunit (Musca domestica, UniProt Q75NA5); test: Displacement of [3H]EBOB from GABA receptor in Musca domestica (house fly) head P2 membrane after 70 min by liquid scintillation counting
T1 sequence (Q75NA5 whole entry): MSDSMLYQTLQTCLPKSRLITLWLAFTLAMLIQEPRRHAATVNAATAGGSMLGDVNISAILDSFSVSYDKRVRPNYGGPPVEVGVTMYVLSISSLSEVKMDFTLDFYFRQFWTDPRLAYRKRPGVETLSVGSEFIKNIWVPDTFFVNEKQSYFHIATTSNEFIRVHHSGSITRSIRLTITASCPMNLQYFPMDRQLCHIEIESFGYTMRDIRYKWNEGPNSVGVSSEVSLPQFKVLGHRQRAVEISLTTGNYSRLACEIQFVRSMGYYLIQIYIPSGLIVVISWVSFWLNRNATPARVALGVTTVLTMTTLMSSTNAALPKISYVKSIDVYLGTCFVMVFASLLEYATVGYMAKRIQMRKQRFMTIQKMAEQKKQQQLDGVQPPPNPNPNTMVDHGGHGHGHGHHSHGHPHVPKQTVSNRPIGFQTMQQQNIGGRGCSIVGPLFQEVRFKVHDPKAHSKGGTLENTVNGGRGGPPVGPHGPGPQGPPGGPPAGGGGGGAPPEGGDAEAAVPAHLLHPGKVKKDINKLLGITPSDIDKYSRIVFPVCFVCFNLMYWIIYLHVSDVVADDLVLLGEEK

[2] = molecular target: T2, GABA receptor subunit (Musca domestica) (UniProt Q75NA5); test: Displacement of [3H]EBOB from GABA receptor in Musca domestica (house fly) head P2 membrane at 2.2 uM after 70 min by liquid scintillation counting
T2 sequence (whole entry): T1 sequence (Q75NA5 whole entry)

[3] = Inhibition of GABA receptor-induced currents in Rattus norvegicus (rat) dorsal ganglion neuron

Row | pIC50 [1] | pIC50 (GABA receptor subunit) | inhibition [2] [%] | pIC50 [3] | Compound
1 | 5.47 | 7.06 | 65 | – | COc1cc(O)c2c(c1C)C(C)C(O)(COC(=O)c1ccc(O)c(CC=C(C)C)c1)OC2=O (stereo unspecified) [DIHYDROISOCOUMARIN]
2 | 5.47 | 7.06 | – | 6.27 | CC(C)(C)CCOC(=O)c1ccc(C#CCCC(=O)O)cc1

From ChEMBL document CHEMBL3046753, “Isocoumarin Derivative as a Novel GABA Receptor Ligand from Neosartorya quadricincta” (J Pestic Sci, 2004)
